Where “and” joins values, the source holds several entries; their conditions need not be identical. Identical values can stand only once. Like-named read-outs stand apart in the source and are kept apart here. Blank lines part the entries; values can stand above or below the compound they belong to.
How the values were obtained:
[1] = system: WI38; assay: In vitro growth inhibition (SRB), WI-38 normal fibroblasts; format: cell-based, human; details: WI38 normal cell line; 3 days
Text: (§1) III. In Vitro Growth Inhibition (GI50) A. Cell line maintenance The following cell lines were selected from the cell bank for screening and GI50 studies: MCF-7: human breast tumor, MCF-7/ADR: MCF-7 adriamycin resistant subline, HT-29: human colon carcinoma, A-549: human non-small cell lung cancer, NIH-3T3: mouse Swiss embryo fibroblast and WI-38: human lung fibroblast, SKMEL-28: human melanoma, Lewis Lung: mouse lung carcinoma, DU-145: prostate carcinoma, B16F10: mouse melanoma, L1210: murine lymphocytic leukemia, P-388: murine leukemia, U-937: human histolytic lymphoma. Except HT-29, WI-38, NIH-3T3 and Lewis Lung which were obtained from the American Type Culture Collection (Rockville, Md.) all the other cell lines were obtained from National Cancer Institute—Frederick Research Facility (Frederick, Md.). […]
(§2) The test compounds were made in-house and the compounds were dissolved PBS or saline at a stock concentration of approximately 20 mM, which is 400 times the desired final maximum test concentration. […] After 3 days of incubation, cell growth was determined.
The SRB assay was performed as described by Monks, A., Scudiero, D., Skehan, P., Shoemaker, R., Paull, K., Vistica, D., Hose, C., Langley, J., Cronise, P., and Vaigro-Wolff, A. Feasibility of a high-flux anticancer drug screen using a diverse panel of cultured human tumor cell lines. […] Bound SRB was solubilized with Tris buffer (10 mM), and the ODs were read using an automated plate reader (Bio-Rad, Model 3550-UV) at 490 nm. Background values were subtracted from the test data, and the data was calculated as a % of control. […] Percentage growth was calculated as described by Peters, A. C, Ahmad, L, Janoff, A. S., Pushkareva, M. Y., and Mayhew, E. Growth Inhibitory efects of liposome-associated 1-o-octadecyl-2-o-metlryl-sn-glycero-3-phosphocholine. […]

[2] = system: DEVDase activity in Jurkat T Cells; assay: DEVDase activity in Jurkat T cells; format: cell-based
Experimental: Suspension cells were seeded at density 3.2×10^5 cells per mL in RPMI-1640 medium (Bio-Whittaker) supplemented with 10% heat inactivated FBS (Bio-Whittaker). Cells were pre-incubated overnight prior to treatment with the ether lipid compounds of the invention. At treatment time cell density was 5×10^5 cells per mL. Cells were incubated with the ether lipid compounds of the invention for various periods of time, usually 6 hours. Cells were collected, washed with 1×DPBS and resuspended in 110 μl of Buffer A (10 mM HEPES-KOH, pH 7.4, 2 mM EDTA, 0.1% CHAPS, 5 mM DTT, 1:100 dilution of protease inhibitors cocktail (SigmaYDTT and protease inhibitors should be added just before use). After 10 min incubation on ice in order to lyse cells, samples were frozen on dry ice/ethanol and kept at −20° C. until analysis. […] At the time of analysis of DEVDase activity frozen pellets were kept on ice until thawed and after vigorous vortexing samples were centrifuged at 14,000 rpm for 6 min. Supernatant was transferred into another tube and 2 μl, in triplicates, were used for protein measurement using Bradford reagent (Bio-Rad).
Measurement of DEVDase activity was carried out in 100 μl volume, where 10 μg of protein was delivered in 50 μl of Buffer A and 40 μM of substrate Ac-DEVD-AMC was also delivered in 50 μl of Buffer A. All measurements were done in triplicates. Reaction was carried out for 1 hour and generation of fluorescent product of reaction (aminomethylcoumarin) was measured by reading fluorescence at 1em 460 nm (1ex 360 nm). Changes in DEVDase activity were calculated after subtraction of background fluorescence of substrate incubated without proteins, and were expressed as percent of control (DEVDase activity in untreated cells). Average of DEVDase activity, calculated from few independent experiments, was used to calculate percent of L-ether lipid-induced DEVDase activity.

[3] = system: K-562; assay: NCI screen, K-562; format: cell-based, human; details: leukemia panel
Experimental: (§3) Candidates deemed suitable for in vivo testing were then synthesized in large scale quantities and some of this material was sent to the NCI's Developmental Therapeutics Program for a battery of growth inhibitory studies against various human tumor cell lines (60 cell lines, 9 different panels). The remainder of the material was used to assess in vivo efficacy using murine tumor models. Additionally, studies were conducted on the lead candidates to discern mechanism of action with particular emphasis on these agents apoptotic ability as measured by caspase 3 activity. The details (materials and methods) for these various assays are described further in the following discussion.
(§4) Ten compounds were also sent to NCT's Drug Discovery Program for screening against numerous human tumor cell lines (9 panels total: renal ovarian, colon, CNS, non-small cell lung, leukemia, breast, melanoma, and prostate). The data are shown in FIGS. 2a-i which also include data regarding D- and L-ET-18-OCH3 (listed as L-EL and D-EL in the figures).

[4] = system: RPMI-8226; assay: NCI screen, RPMI-8226; format: cell-based, human; details: leukemia panel
Experimental: as §3, §4

[5] = system: human umbilical vein endothelial cell (HUVEC) line; assay: In vitro growth inhibition, HUVEC; format: cell-based
[6] = system: Washed Human RBCs; assay: Hemolysis assay with washed human red blood cells; format: cell-based
Experimental: Venous blood was collected in 10 mL Vacutainer tubes containing EDTA using a 21G needle or larger. […] The blood was transferred from 1 EDTA tube to a 50 mL conical tissue culture tube and the volume was brought up to 50 mL with PBS.
The blood was centrifuged for 10 minutes at 1500 RPM. The supernatant was removed and the blood was resuspended up to 50 mL with PBS. Next the blood was centrifuged for 10 minutes at 1500 RPM.
The supernatant was removed, and 2.0 mL of packed red blood cells was carefully transferred, using positive displacement pipet, into a fresh conical tissue culture tube. Next, 48 mL PBS was added to achieve a 4% washed RBC solution.
Next, 25, 50, 100 and 200 uM stock solutions of test sample in phosphate buffered saline (PBS) as follows:
Next, 0.5 mL of 4% washed RBC was added to 0.5 mL test sample dilutions (in duplicate). The final concentration of test sample was 50% of working stock solution.
The samples were capped or sealed with Parafilm and the samples were gently mixed. The blood was incubated at 37° C. in gentle rotating water bath for 30 minutes. The samples were centrifuged for 10 minutes at 1500 RPM. Next, 200 uL of supernatant was transferred to a cuvette and 1 mL deionized water was added. Absorbance was measured at 550 nm vs. a water blank. Next, H10 and H50 were determined by graphing Absorbance vs. Test Sample Concentration.

[7] = system: Whole Human Blood; assay: Hemolysis assay with whole human blood; format: cell-based
Experimental: Venous blood was collected in 10 mL Vacutainer tubes containing EDTA using a 21G needle or larger.
stock solutions of 20 mM test sample in phosphate buffered saline (PBS) were prepared as follows:
Then 270 uL of whole blood was aliquotted in duplicate mini test tubes using positive displacement pipet. Next, 30 uL of each working stock solution, in duplicate, was added to the whole blood. Next, 30 uL of PBS was added for background control. The samples were capped or sealed with Parafilm and gently mixed. The blood was incubated at 37° C. in gentle rotating water bath for 30 minutes. Final concentration of test sample was 10% of working stock solution.
Total hemolysis samples of 1% and 10% whole blood samples in deionized water were prepared as follows: 1:100=10 uL whole blood+990 uL deionized water 1:10=100 uL whole blood+900 uL deionized water
The samples were freeze thawed 3× in liquid nitrogen then water bath. The samples were then centrifuged 10 minutes at 1500 RPM. Next, 100 uL of supernatant was transferred to a cuvette and […] deionized water was added. The absorbance was read at 550 nm vs. water blank.
H10 and H50 were calculated by graphing Percent Total Hemolysis vs. Test Sample Concentration. The Percent Total Hemolysis=(average o.d of test sample)/(average o.d. of total hemolysis sample)×100

[8] = system: HT29; assay: In vitro growth inhibition (SRB), HT29; format: cell-based, human; details: HT29 tumor cell line; 3 days
Text: as §1, with “lymphoma.” for “lymphoma. Except HT-29, WI-38, NIH-3T3 and Lewis Lung which were obtained from the American Type Culture Collection (Rockville, Md.) all the other cell lines were obtained from National Cancer Institute—Frederick Research Facility (Frederick, Md.).”
as §2
(§5) The SRB assay was performed as described by Monks, A., Scudiero, D., Skehan, P., Shoemaker, R., Paull, K., Vistica, D., Hose, C., Langley, J., Cronise, P., and Vaigro-Wolff, A. Feasibility of a high-flux anticancer drug screen using a diverse panel of cultured human tumor cell lines. […] Bound SRB was solubilized with Tris buffer (10 mM), and the ODs were read using an automated plate reader (Bio-Rad, Model 3550-UV) at 490 nm. Background values were subtracted from the test data, and the data was calculated as a % of control. […]

[9] = system: A549; assay: In vitro growth inhibition (SRB), A549; format: cell-based, human; details: A549 tumor cell line; 3 days
Text: as §1, with “lymphoma.” for “lymphoma. Except HT-29, WI-38, NIH-3T3 and Lewis Lung which were obtained from the American Type Culture Collection (Rockville, Md.) all the other cell lines were obtained from National Cancer Institute—Frederick Research Facility (Frederick, Md.).”
as §2, §5

[10] = system: MCF7; assay: In vitro growth inhibition (SRB), MCF7; format: cell-based, human; details: MCF7 tumor cell line; 3 days
Text: as §1, with “lymphoma.” for “lymphoma. Except HT-29, WI-38, NIH-3T3 and Lewis Lung which were obtained from the American Type Culture Collection (Rockville, Md.) all the other cell lines were obtained from National Cancer Institute—Frederick Research Facility (Frederick, Md.).”
as §2, §5

[11] = system: MCF7/ADR; assay: In vitro growth inhibition (SRB), MCF7/ADR; format: cell-based, human; details: MCF7/ADR tumor cell line; 3 days
Text: as §1, with “lymphoma.” for “lymphoma. Except HT-29, WI-38, NIH-3T3 and Lewis Lung which were obtained from the American Type Culture Collection (Rockville, Md.) all the other cell lines were obtained from National Cancer Institute—Frederick Research Facility (Frederick, Md.).”
as §2, §5

[12] = system: NIH-3T3; assay: In vitro growth inhibition (SRB), NIH-3T3 normal fibroblasts; format: cell-based, mouse; details: NIH-3T3 normal cell line; 3 days
Text: as §1, with “lymphoma.” for “lymphoma. Except HT-29, WI-38, NIH-3T3 and Lewis Lung which were obtained from the American Type Culture Collection (Rockville, Md.) all the other cell lines were obtained from National Cancer Institute—Frederick Research Facility (Frederick, Md.).”
as §2, §5

[13] = system: platelets in dog whole blood; assay: Platelet aggregation in dog whole blood (whole blood aggregometer)
Experimental: Briefly, whole citrated blood is diluted 1:2 with sterile saline and placed in a warm chamber with a mini stir bar. An electronic probe, measuring electrical resistance, is inserted in the sample. The aggregometer is calibrated and the baseline is observed to detect any spontaneous aggregation. The test sample is added and allowed to run for at least 6 minutes. If the sample is an agonist the platelets will start to aggregate and stick to the electronic probe causing resistance across the electrodes to increase. This resistance, in ohms, is measured 6 minutes post addition of sample. The test samples are run at 25, 100, 200, 400 and 800 uM and compared to 100 uM L-ET-18-OCH3.
Collection of Blood Sample for in vitro Platelet Aggregation Testing: Venous blood is collected in 4.5 mL Vacutainer tubes containing 0.129 M sodium citrate using a 21G needle or larger. Blood is immediately mixed by gentle inversion 15-20 times and kept at room temperature. Dilution ratio is 1 to 9 (3.8% citrate solution:blood). One (2.0 mL) Vacutainer tube containing EDTA is also collected for platelet counts. Complete blood counts (CBC) are measured on the CDC Technologies Hemavet 1500 to ensure that the test subject's platelets are within normal range. Any vials of hemolytic blood or blood containing any clots should be discarded. Platelet aggregation testing must be completed within 3 hours of blood collection. After this time the ability of platelets to aggregate decreases.
Cloudy solutions were warmed to 50° C. to dissolve and particles. Dilutions were prepared in PBS or saline at 40× concentration. (25 uL test sample are added to 1000 uL diluted blood (1:40)).
Procedure for in vitro Platelet Aggregation Test using CH NO-LOG Aggregometer Model 560-CA: The following protocol was used:

[14] = concentration producing 10% hemolysis
[15] = concentration producing 50% hemolysis

Structure (SMILES): CCCCCCCCCCCCCCCCCCOCC(COP(=O)([O-])OCC[N+](C)(C)C)OC [D-ET18OCH3, 1-O-octadecyl-2-O-methyl-glycerophosphocholine]
GI50 [1]: 10 to 13 µM
% L-ET18OCH3 (DEVDase, 6 hrs) ([2]; [ether lipid] 10 μM): 79.3 ± 9.7 % L-ET18OCH3
% L-ET18OCH3 (DEVDase, 6 hrs) ([2]; [ether lipid] 20 μM): 89.2 ± 12.2 % L-ET18OCH3
% L-ET18OCH3 (DEVDase, 6 hrs) ([2]; [ether lipid] 30 μM): 92.1 ± 11.8 % L-ET18OCH3
activity against K-562 (in words) [3]: extremely poor activity
activity against RPMI-8226 (in words) [4]: extremely poor activity

Structure (SMILES): CCCCCCCCCCCCCCCCCCOCC(COP(=O)([O-])OCC[N+](C)(C)C)OC [L-ET18OCH3, 1-O-octadecyl-2-O-methyl-glycerophosphocholine]
GI50 [1]: 10 to 12 µM
GI50 [5]: 1.2 µM
% L-ET18OCH3 (DEVDase, 6 hrs) ([2]; [ether lipid] 10 μM): 100 ± 8.8 % L-ET18OCH3
% L-ET18OCH3 (DEVDase, 6 hrs) ([2]; [ether lipid] 20 μM): 100 ± 10.4 % L-ET18OCH3
% L-ET18OCH3 (DEVDase, 6 hrs) ([2]; [ether lipid] 30 μM): 100 ± 9.3 % L-ET18OCH3

GI50 [8]: 4.8 µM
GI50 [9]: 7.2 µM
GI50 [10]: 34.8 µM
GI50 [11]: > 40 µM
platelet aggregation response (in words) [13]: no aggregation was noted
Relative Platelet Aggregation (Ohms) ([13]; 25 μM): 0 Ohms
Relative Platelet Aggregation (Ohms) ([13]; 100 μM): 0 Ohms
Relative Platelet Aggregation (Ohms) ([13]; 200 μM): 0 Ohms
Relative Platelet Aggregation (Ohms) ([13]; 400 μM): 0 Ohms
Relative Platelet Aggregation (Ohms) ([13]; 800 μM): 0 Ohms
Structure (SMILES): CCCCCCCCCCCCCCCCCCOCC(CCP(=O)([O-])OCCC[N+](C)(C)C)OC [2(S), 3′-Trimethylaminopropyl-1-O-octadecyl-2-O-methylbutane-4-phospbonate]
H10 [6, 14]: 14 µM and 8 µM
H50 [6, 15]: 21 µM and 11 µM
H10 [7, 14]: 400 µM
H50 [7, 15]: >2000 µM
GI50 [12]: 33.5 µM and 33.6 µM
GI50 [1]: < 4 µM
% L-ET18OCH3 (DEVDase, 6 hrs) ([2]; [ether lipid] 10 μM): 57.2 ± 8.4 % L-ET18OCH3
% L-ET18OCH3 (DEVDase, 6 hrs) ([2]; [ether lipid] 20 μM): 70.6 ± 10.8 % L-ET18OCH3
% L-ET18OCH3 (DEVDase, 6 hrs) ([2]; [ether lipid] 30 μM): 76.8 ± 11.1 % L-ET18OCH3
platelet aggregation response (in words) ([13]; listed as 2): did not evoke a platelet aggregation response

— patent US20060135765A1, “Antineoplastic ether lipid compounds” (priority 2003, published 2006)
